Laboratory results: PMC9127750, “Structure-based design of CDC42 effector interaction inhibitors for the treatment of cancer” (Cell reports, 2022)
Values joined by “and” are separate entries in the source; they are usually repeats but may differ in a detail not shown here. Equal values may be shown once.

Test system: WM3248 melanoma cells, 486 antibodies
Experiment: Reverse phase protein arrays (RPPA)
Assay type: cell-based, Human
Description: Pellets were snap frozen in liquid nitrogen and shipped to MD Anderson Cancer Center core RPPA facility for RPPA analysis (Table S5). Three biological replicates for each sample were generated.
Nomenclatures on the RPPA heatmaps: name_of_antibody.species_of_antibody.status_of_antibody. V - antibody validated; C - validation of antibody in progress; Q - antibody nonspecific; E – under evaluation; antibodies raised in M - mouse, G - goat, R - rabbit, or T - rat.

CN(C)c1cccc(Nc2cc(-c3ccccc3)nc(C3CCNCC3)n2)c1 [ARN22089, N1,N1-dimethyl-N3-(6-phenyl-2-(piperidin-4-yl)pyrimidin-4-yl)benzene-1,3-diamine]
LCN2.R.V Norm_10 Average (level 10 vs 0): 1.417
LDHA.R.C Norm_10 Average (level 10 vs 0): 1.541
LRP6_pS1490.R.V Norm_10 Average (level 10 vs 0): 0.919
Lasu1.R.V Norm_10 Average (level 10 vs 0): 1.173
MACC1.R.V Norm_10 Average (level 10 vs 0): 0.973
MAPK_pT202_Y204.R.C Norm_10 Average (level 10 vs 0): 0.758
MCT4.R.V Norm_10 Average (level 10 vs 0): 0.926
MDM2_pS166.R.V Norm_10 Average (level 10 vs 0): 1.140
MEK1.R.V Norm_10 Average (level 10 vs 0): 1.376
MEK1_pS217_S221.R.V Norm_10 Average (level 10 vs 0): 0.904
MEK2.R.V Norm_10 Average (level 10 vs 0): 0.981
MERIT40.R.C Norm_10 Average (level 10 vs 0): 0.966
MERIT40_pS29.R.V Norm_10 Average (level 10 vs 0): 1.055
METTL3.R.V Norm_10 Average (level 10 vs 0): 1.153
MIF.R.C Norm_10 Average (level 10 vs 0): 1.003
MIG6.R.V Norm_10 Average (level 10 vs 0): 0.937
MITF.R.V Norm_10 Average (level 10 vs 0): 1.099
MLH1.M.V Norm_10 Average (level 10 vs 0): 0.965
MLKL.R.V Norm_10 Average (level 10 vs 0): 0.901
MMP2.R.V Norm_10 Average (level 10 vs 0): 0.936
MMP14.R.V Norm_10 Average (level 10 vs 0): 1.251
MR1.M.C Norm_10 Average (level 10 vs 0): 1.002
MSH6.R.C Norm_10 Average (level 10 vs 0): 1.139
MSI2.R.C Norm_10 Average (level 10 vs 0): 1.076
MTCO1.M.V Norm_10 Average (level 10 vs 0): 1.058
MTSS1.M.C Norm_10 Average (level 10 vs 0): 0.995
Mcl.1.R.V Norm_10 Average (level 10 vs 0): 0.815
MelanA.R.C Norm_10 Average (level 10 vs 0): 0.907
Melanoma.gp100.R.C Norm_10 Average (level 10 vs 0): 0.952
Merlin.R.C Norm_10 Average (level 10 vs 0): 1.140
Midkine.R.V Norm_10 Average (level 10 vs 0): 0.931
Mitofusin.1.R.V Norm_10 Average (level 10 vs 0): 0.966
Mitofusin.2.R.V Norm_10 Average (level 10 vs 0): 0.982
Mnk1.R.V Norm_10 Average (level 10 vs 0): 0.908
mTOR_pS2448.R.C Norm_10 Average (level 10 vs 0): 1.026
HLA.DQA1.R.V Norm_10 (level 10 vs 0, replicates): 0.816 and 1.208 and 0.956
HLA.DR.DP.DQ.DX.R.C Norm_10 (level 10 vs 0, replicates): 0.907 and 1.197
HMHA1.R.V Norm_10 (level 10 vs 0, replicates): 0.915 and 0.873 and 0.979
HNRNPK.R.V Norm_10 (level 10 vs 0, replicates): 0.952 and 0.960
HSP27.M.C Norm_10 (level 10 vs 0, replicates): 0.892 and 1.008 and 0.976
HSP27_pS82.R.V Norm_10 (level 10 vs 0, replicates): 0.956 and 0.808 and 0.983
HSP60.R.V Norm_10 (level 10 vs 0, replicates): 0.910 and 0.899 and 0.970
HSP70.R.C Norm_10 (level 10 vs 0, replicates): 0.893 and 0.957
Hexokinase.I.R.C Norm_10 (level 10 vs 0, replicates): 1.324 and 1.263
Hexokinase.II.R.V Norm_10 (level 10 vs 0, replicates): 1.158 and 1.060 and 1.165
Hif.1αR.C Norm_10 (level 10 vs 0, replicates): 1.534 and 0.812 and 1.121
Histone.H3.R.V Norm_10 (level 10 vs 0, replicates): 1.104 and 1.109 and 0.657
Histone.H3_pS10.R.V Norm_10 (level 10 vs 0, replicates): 0.925 and 1.333 and 0.853
IDO.R.C Norm_10 (level 10 vs 0, replicates): 1.020 and 0.847 and 1.005
IGF1R_pY1135_Y1136.R.V Norm_10 (level 10 vs 0, replicates): 1.020 and 0.873 and 0.862
IGFBP2.R.V Norm_10 (level 10 vs 0, replicates): 0.915 and 0.942
IGFBP3.M.V Norm_10 (level 10 vs 0, replicates): 0.808 and 1.056 and 1.048
IGFRb.R.C Norm_10 (level 10 vs 0, replicates): 1.063 and 0.914 and 0.882
IL.6.R.C Norm_10 (level 10 vs 0, replicates): 0.956 and 0.898 and 0.919
IMP3.R.C Norm_10 (level 10 vs 0, replicates): 0.902 and 1.022 and 0.935
INPP4b.R.C Norm_10 (level 10 vs 0, replicates): 0.944 and 1.130 and 1.013
IR.b.R.C Norm_10 (level 10 vs 0, replicates): 1.057 and 0.927 and 0.958
IRF.1.R.V Norm_10 (level 10 vs 0, replicates): 0.995 and 0.851 and 0.777
IRF.3.R.V Norm_10 (level 10 vs 0, replicates): 0.868 and 1.016 and 1.018
IRS1.R.V Norm_10 (level 10 vs 0, replicates): 1.002 and 0.864 and 0.920
IRS2.R.C Norm_10 (level 10 vs 0, replicates): 1.495 and 0.732 and 0.873
JAB1.M.C Norm_10 (level 10 vs 0, replicates): 1.010
JNK2.R.V Norm_10 (level 10 vs 0, replicates): 0.700 and 4.357 and 1.864
JNK_pT183_Y185.R.C Norm_10 (level 10 vs 0, replicates): 1.101 and 0.836 and 0.927
Jagged1.R.V Norm_10 (level 10 vs 0, replicates): 0.925 and 0.930 and 0.952
Jak2.R.V Norm_10 (level 10 vs 0, replicates): 0.891 and 0.946
KAP1.R.V Norm_10 (level 10 vs 0, replicates): 1.129 and 0.933 and 1.246
KEAP1.R.V Norm_10 (level 10 vs 0, replicates): 1.137 and 0.961 and 0.953
LAD1.R.V Norm_10 (level 10 vs 0, replicates): 0.810 and 0.787 and 1.126
LC3A.B.R.C Norm_10 (level 10 vs 0, replicates): 1.080
LCN2.R.V Norm_10 (level 10 vs 0, replicates): 1.979 and 1.149 and 1.123
LDHA.R.C Norm_10 (level 10 vs 0, replicates): 1.080 and 1.446 and 2.097
LRP6_pS1490.R.V Norm_10 (level 10 vs 0, replicates): 0.997 and 0.923 and 0.837
Lasu1.R.V Norm_10 (level 10 vs 0, replicates): 0.972 and 1.377 and 1.170
Lck.R.V Norm_10 (level 10 vs 0, replicates): 1.025
Lyn.R.V Norm_10 (level 10 vs 0, replicates): 0.836 and 1.342 and 1.046
MACC1.R.V Norm_10 (level 10 vs 0, replicates): 0.988 and 0.983
MAPK_pT202_Y204.R.C Norm_10 (level 10 vs 0, replicates): 0.814 and 0.633 and 0.828
MCT4.R.V Norm_10 (level 10 vs 0, replicates): 0.718 and 0.987
MDM2_pS166.R.V Norm_10 (level 10 vs 0, replicates): 1.187 and 1.159
MEK1.R.V Norm_10 (level 10 vs 0, replicates): 3.067 and 0.225 and 0.836
